Data taken from patent publication US20240384268A1, “Oligonucleotides” (Hudson Institute of Medical Research, priority 2021, published 2024).
In the oligonucleotide strings, read from the 5' end, every base follows the letter of its sugar. An asterisk marks phosphorothioate; unmarked linkages are phosphodiester. Other units and linkages are bracketed, terminal groups are in braces. A string of capitals states the bases alone. d = 2'-deoxy (DNA); m = 2'-O-methyl

What was measured:
TLR8 [1] = target: T1, TLR8 (Homo sapiens, UniProt Q9NR97); assay: HEK-TLR8 NF-κB-luciferase reporter, R848 or Motolimod stimulation (potentiation or inhibition); type: cell-based; design: expressed in transfected cells; host or cells: 293XLhTLR8 (HEK293); conditions: HEK-TLR8; for TLR8 HEK 5 uM: 3mer 2'OMe ASO at 5 uM, value relative to Ligand only = 1.000, NT = 0.000; for effect of 3-mer 2′OMe PS oligos on TLR8 sensing in HEK-TLR8 (in words): 5 μM naked 3-mer, Motolimod
T1 sequence (Q9NR97 27-1041): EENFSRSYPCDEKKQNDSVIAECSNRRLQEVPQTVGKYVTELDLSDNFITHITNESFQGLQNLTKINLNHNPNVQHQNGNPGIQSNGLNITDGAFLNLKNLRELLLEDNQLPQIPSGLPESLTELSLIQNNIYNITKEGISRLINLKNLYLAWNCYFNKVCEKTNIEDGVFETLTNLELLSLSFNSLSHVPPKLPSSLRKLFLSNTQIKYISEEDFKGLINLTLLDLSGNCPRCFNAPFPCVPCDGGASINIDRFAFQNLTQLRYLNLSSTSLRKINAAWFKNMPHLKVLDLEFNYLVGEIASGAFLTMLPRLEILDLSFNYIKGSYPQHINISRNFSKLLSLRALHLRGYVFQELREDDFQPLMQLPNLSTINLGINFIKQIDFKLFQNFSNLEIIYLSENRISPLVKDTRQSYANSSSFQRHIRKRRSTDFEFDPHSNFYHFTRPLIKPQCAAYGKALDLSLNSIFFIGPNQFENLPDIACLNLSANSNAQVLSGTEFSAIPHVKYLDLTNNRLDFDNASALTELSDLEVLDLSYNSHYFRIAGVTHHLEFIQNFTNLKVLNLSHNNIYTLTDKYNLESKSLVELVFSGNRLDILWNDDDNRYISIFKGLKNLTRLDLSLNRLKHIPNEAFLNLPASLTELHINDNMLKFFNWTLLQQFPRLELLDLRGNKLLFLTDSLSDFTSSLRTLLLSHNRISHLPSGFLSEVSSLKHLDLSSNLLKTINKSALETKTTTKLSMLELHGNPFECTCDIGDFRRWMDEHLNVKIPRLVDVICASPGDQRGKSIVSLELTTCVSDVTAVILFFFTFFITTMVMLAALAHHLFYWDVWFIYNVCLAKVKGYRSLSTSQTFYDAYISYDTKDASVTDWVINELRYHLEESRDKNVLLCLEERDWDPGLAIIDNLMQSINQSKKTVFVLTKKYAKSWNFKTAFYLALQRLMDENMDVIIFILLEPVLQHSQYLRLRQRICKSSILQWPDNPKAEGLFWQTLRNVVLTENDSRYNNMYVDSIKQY
Procedure: (§1) In such examples, potentiation of TLR8 activity can be identified by observation of an overall increased TLR8 response of the cell population, or a higher proportion of cells having TLR8-positive activity as compared to a negative control condition in which cells are treated with TLR8 agonist in the absence of the oligonucleotide (or in the presence of an appropriate control non-potentiating agent). In one example, 293XLhTLR8 (referred to as HEK-TLR8) cells are transfected with pNF-κB-Luc4 reporter, incubated with an oligonucleotide, and then stimulated with R848. TLR8 activity can be determined by a luciferase assay, which measures activated NF-κB by luminescence. TLR8 activity can also be analysed by measuring cytokine levels, for example by ELISA.
as §1, with “inhibition” for “potentiation”, “decreased” for “increased”, “lower” for “higher”, “positive” for “negative”, “inhibitory” for “non-potentiating”
For cGAS stimulations, cells were treated for indicated duration with ASOs, prior to transfection with ISD70 (human cells) or ISD45 (mouse cells) (the ASOs were not washed off prior to ISD transfection unless otherwise indicated). The cGAS ligands ISD45 (Stetson and Medzhitov, 2006) and ISD70 (also known as VACV-70 (Unterholzner et al., 2010)) (Table 1) were resuspended as follows: 5 1d of sense and 5 μl of antisense strands at 10 μg/μl were added to 90 μl PBS under sterile conditions, heated at 75° C. for 30 min, prior to letting cool down at room temperature and aliquoting (stock at 1 μg/1 l). The ISDs were transfected at a concentration of […] at a ratio of 1 μg:1 μl with Lipofectamine 2000 in Opti-MEM (Thermo Fisher Scientific). HEK-TLR3, HEK-TLR7 and […] were treated with indicated concentration of ASOs for 20-50 min, prior to stimulation with poly(I:C) (Invivogen), R848 (Invivogen), Motolimod (MedChemExpress) and the Class B CpG oligonucleotides ODN 2006 (synthesised by IDT and resuspended in RNase-free TE buffer [Table 1]), respectively. The TLR2/1 agonist PAM3CSK4 (Invivogen), the TLR4 agonist lipopolysaccharide (Invivogen), the Class B CpG oligonucleotides ODN 1826 (synthesised by IDT and resuspended in RNase-free TE buffer), the mouse Sting agonist DMXAA (Cayman) and the human STING agonist (compound #3 from (Raanjulu et al., 2018), referred to as GSK herein—kind gift from Cancer Therapeutics CRC, Australia) were used at indicated concentrations. Aspirin (Sigma—A2093) was resuspended in pure medium to 10 mM, filter sterilised and added to the cells at 2 mM final. All ASOs were synthesised by Integrated DNA Technologies (IDT), and resuspended in RNase-free TE buffer, pH 8.0 (Thermo Fisher Scientific). Cell viability was assessed by adding 1× fresh resazurin solution to the wells (10λ solution made up with 7 mg resazurin [Sigma—R7017] dissolved in 3.5 ml PBS, sterile filtered at […]) for 4 h, prior to reading at with a Fluostar OPTIMA (BMG LABTECH) plate-reader (fluorescence: Excitation 535 nm, Emission 590); wells with medium only and 1× resazurin were used as blanks.

TLR8 [2] = target: T1, TLR8; assay: R848-driven IP-10 production in THP-1 cells (TLR8); type: cell-based; design: expressed in transfected cells; conditions: 3mer 2'OMe ASO at 1 uM; raw values, Ligand only = 355.752, NT = 134.831;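 further: IP-10 by ELISA in supernatant after 7 h R848 stimulation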

| Substance | TLR8 HEK 5 uM (TLR8 [1]) | TLR8 1 uM (TLR8 [2]) | effect of 3-mer 2′OMe PS oligos on TLR8 sensing in HEK-TLR8 (in words) (TLR8 [1]) |
| --- | --- | --- | --- |
| mUmCmA (mU*mC*mA) [UCA, 3-mer 2′OMe PS oligo] | 1.115 | 1049.345 | – |
| dA*dG*dC (DNA AGC; listed as DNA, chemistry not fully specified) | 1.411 | 267.225 | – |
| UAG (mU*mA*mG) | 1.443 | 226.441 | – |
| AAU (antisense mA*mA*mU) | 0.807 | 202.802 | – |
| dG*dC*dC [GCC] | 0.701 | 209.536 | – |
| mGmUmC (mG*mU*mC) [GUC, 3-mer 2′OMe PS oligo] | 0.763 | 131.948 | robustly inhibitory |
| ACU (antisense mA*mC*mU) | 0.896 | 250.907 | – |
| mGmAmU (mG*mA*mU) [GAU, 3-mer 2′OMe PS oligo] | 0.528 | 147.162 | robustly the most potent |
| CUC (mC*mU*mC) | 0.685 | 245.566 | – |
| GGU (mG*mG*mU) | 1.380 | 274.989 | – |
| dC*dA*dA (CAA; listed as DNA, chemistry not fully specified) | 0.811 | 373.157 | – |
| dA*dC*dA (DNA ACA; listed as RNA, chemistry not fully specified) | 0.841 | 262.630 | – |
| UUG (listed as RNA, chemistry not fully specified) | 1.071 | 347.573 | – |
| UUU (mU*mU*mU) | 0.870 | 307.213 | – |
| dG*dC*dG [GCG] | 1.191 | 290.409 | – |
| UUC (mU*mU*mC) | 0.968 | 213.878 | – |
| dC*dC*dG (CCG; listed as DNA, chemistry not fully specified) | 0.899 | 437.264 | – |
| mGmUmU (mG*mU*mU) [GUU, 3-mer 2′OMe PS oligo] | 0.668 | 166.278 | robustly inhibitory |
| UCC (mU*mC*mC) | 1.292 | 346.575 | – |
| mGmUmA (GUA; all 2'-O-methyl, backbone not given here; further chemistry not fully specified) [shortMut1-3b] | 0.792 | 133.537 | robustly inhibitory |
| CUG (mC*mU*mG) | 1.074 | 264.072 | – |
